Assay results: patent publication US7740831B2, “Compositions for potentiating glutathione” (Fancl Corporation, priority 2001, dated 2010)

What was measured:
[1] = tested on: B16 melanoma cells; assay: Skin whitening test (melanin suppression); format: cell-based, mouse; conditions: 3 days; for Melanin suppression rate (compound): 20 μg/ml; for Melanin suppression rate (positive control): 3 mM
Method: Melanin suppressing activity was measured by the following test using the extracts of Lamium album, Euphrasia officinalis, Plantago psyllium, Plantago psyllium seeds, Olea europaea, Forsythia suspensa, Conandron ramondioides Siebold et Zucc, Osmanthus fragrans, Osmanthus asiaticus, Syringa vulgaris, Verbena officinalis L., and Momordica charantia L., and hydrolysates thereof obtained in Example 1, DPE obtained in Examples 3 and 4, and the DPE glycosides obtained in Example 5.
Cultured B16 melanoma cells derived from mouse provided as melanin producing cells were cultured in a minimum basic culture medium (MEM) to which FBS was added so as to have a final concentration of 10%. At a concentration of 3×10^3 cell/ml, those cells were inoculated in a 6-well plate (6 ml in each well), and were cultured in a CO2 incubator for 5 days, after which the culture medium was exchanged. […] Then, after further culturing for 3 days under the same conditions, the cells were washed and stripped by a scraper treatment. The cells were then solubilized with sodium dodecylsulfate (SDS), and the absorbance values at 475 nm and 260 nm were measured (these values were taken as S475 and S260). The melanin suppression rate was calculated using the following Equation 1, with the absorbance values at 475 nm and 260 nm obtained for cells cultured in a culture medium to which no test substances were added taken as C475 and C260, respectively. 3 mM vitamin C and 3 mM kojic acid were used as positive controls. As is shown in Tables 7 and 8, the production of melanin is suppressed by the addition of the test substances, so that the test substances show a skin whitening effect.

[2] = tested on: CCD 1059 normal human skin fibroblasts; assay: Resistance to active oxygen (singlet oxygen, rose bengal) cell damage after glutathione potentiation; format: cell-based; conditions: compound 20 μg/ml, 24 h preincubation then removed; singlet oxygen exposure; untreated control 28
Method: Then, preincubation was performed for 24 hours at 37° C., so that the intracellular glutathione concentration was increased. […] The present test was performed in order to evaluate whether it was possible to alleviate the effects of the active oxygen that was generated by increasing the intracellular glutathione concentration, so that the plants, hydrolysates thereof, DPE, and DPE glycosides discovered by the present invention were completely removed after the preincubation.
After the cells were washed, rose bengal (which is a singlet oxygen generating agent) was dissolved in Hanks solution so as to have a final concentration of 50 μM, and was added to the cells. The cells were then irradiated for 10 minutes with visible light, so that the cells were exposed to singlet oxygen. The time for which the cells were immersed in Hanks solution and the time for which the cells were exposed to visible light were the same for all of the groups. After the exposure, the cells were again washed with Hanks solution, and the culture medium was exchanged with DMEM containing 10% FBS. After 3 days, the cells were counted by means of a Coulter counter, and the numbers of living cells were compared. In this comparison, an evaluation was performed with the number of cells in a non-exposed group that was not exposed to singlet oxygen taken as 100%. It is seen from Table 6 that the survival rates of the respective groups exposed to singlet oxygen were improved (compared to a group that was not treated with any test substance (control)) by the addition of the above-mentioned plant extracts, hydrolysates thereof, DPE, and DPE glycosides.

[3] = tested on: CCD 1059 normal human skin fibroblasts; assay: Measurement of glutathione activity (intracellular glutathione, method of Baker et al.); format: cell-based; conditions: 24 hours
Method: The cells were then collected after being cultured for 24 hours. […] The collected cells were disrupted using sonication, and proteins were removed using metaphosphoric acid. Then, the solutions were again neutralized, to thereby produce samples used for glutathione measurement. The measurement of glutathione was performed using the method of Baker et al. (Anal. […] Then, the absorbance at 405 nm was measured, and this was taken as the glutathione concentration.

[4] = tested on: Clone 9 human liver cells; assay: Effect on liver cell (intracellular glutathione); conditions: compound 10 μg/ml, 24 hours
Method: Clone 9 human liver cells (8×10^6 cells) (manufactured by Dainippon Pharmaceutical Co., Ltd.) were inoculated in a petri dish (manufactured by Nunc) with a diameter of 6 cm, and the cells were cultured in DMEM containing 10% deactivated FBS for 3 days at 37° C. in the presence of 5% carbon dioxide gas. When the cells were 80% confluent, the medium was exchanged with DMEM containing 0.5% FBS. After the cells were naturalized for 24 hours, the culture medium was removed by suction and exchanged with fresh DMEM containing 0.5% FBS, and the test substances were dissolved in ethanol. […] 24 hours after the addition, the cells were collected, and glutathione measurements were performed by the method described in Example 5.

[5] = tested on: gamma-glutamyl cysteine synthetase mRNA; assay: γ-glutamylcysteine synthetase production promoting activity by RT-PCR; format: cell-based, human; conditions: compound 20 μg/ml, 8 hours
Method: After 8 hours, total RNA was collected by using TRIZOL reagent (Life Technologies Oriental, Inc.) following a protocol.
Gamma-glutamyl cysteine synthetase mRNA and G3PDH mRNA expression promoting activities were measured with RT-PCR high (Toyobo Co., Ltd.) using the collected total RNA. The G3PDH gene is known as a housekeeping gene and expresses in all cells constantly, so that the gene is widely used as a control gene. The following primers were used for PCR: 5′-TGA AAC TCT GCA AGA GAA GOG G-3′ (SEQ ID NO: 1) and 5′-GCT TCA TCT GGA AAG AGO AGG G -3′ (SEQ ID NO: 2) (gamma-glutamyl cysteine synthetase); and 5′-ACCACAGTCCATGCCATCAC-3′ (SEQ ID NO: 3) and 5′-TCCACCACCCTGTTGCTGTA-3′ (SEQ ID NO: 4) (G3PDH). […] Then, the intensity of staining was measured using image analysis software ImageMaster 1D (manufactured by Amersham Pharmacia Biotech Co.). The group in which no test substances were added (1% ethanol) was taken as a control, and the amount of expression was evaluated by a comparison of the amounts of expression in cases where test substances were added (with a value obtained by dividing the staining intensity of the γ-glutamylcysteine synthetase mRNA by the staining intensity of G3PDH taken as 1). […]

[6] = tested on: cystine transporter (xCT); assay: Cystine transporter (xCT) production ability by Western blotting; format: cell-based, human; conditions: compound 20 μg/ml, 24 hours
Excerpt: When the cells were 80% confluent, the medium was exchanged with DMEM containing 0.5% FBS.

[7] = tested on: CCD 1059 normal human skin fibroblasts; assay: Effect of combined use of S-containing compound (cysteine) on intracellular glutathione; format: cell-based; conditions: compound 2.5 μg/ml, control = cysteine only
Method: CCD 1059 normal human skin fibroblasts (1.5×10^5 cells) (manufactured by Dainippon Pharmaceutical Co., Ltd.) were inoculated in a petri dish (manufactured by Nunc) with a diameter of 6 cm, and the cells were cultured in Dulbecco's modified Eagle's medium (DMEM) containing 10% deactivated fetal bovine serum (hereafter abbreviated to “FBS”) for 3 days at 37° C. in the presence of 5% carbon dioxide gas. When the cells were 80% confluent, the medium was exchanged with DMEM containing 0.5% fetal bovine serum (hereafter abbreviated to “FBS” in some cases). After the cells were naturalized for 24 hours, the culture medium was removed by suction and exchanged with fresh DMEM containing 0.5% FBS and the test substances were dissolved in ethanol. […] The cells were then collected after being cultured for 24 hours. […] The collected cells were disrupted using sonication, and proteins were removed using metaphosphoric acid. Then, the solutions were again neutralized, to thereby produce samples used for glutathione measurement. […] To describe the method briefly, reduced nicotinamide adenine dinucleotide phosphate (NADPH), glutathione reductase, and 5,5′-dithiobis(2-nitrobenzoic acid) (DNTB) provided as a coloring agent were added to a 2-(N-morpholino)ethanesulfonate buffer (MES buffer), and the mixture was reacted with each measurement sample or a standard substance used to produce a calibration curve. Then, the absorbance at 405 nm was measured, and this was taken as the glutathione concentration.
However, since it was desired to add an S-containing compound at an arbitrary concentration, the culture medium used in the case of this addition was DMEM that contains no S-containing compound (i.e., a medium that was free of methionine, cysteine, or cystine). […] A comparison was made by calculation from the ratio relative to respective control groups in which only cysteine was added in the same amounts (groups in which only cysteine was added were taken as control groups in which the respective final concentrations of cysteine were 200 and 400 μM, and the activities of the respective test substance groups were evaluated as ratios relative to the control groups with the activities of the respective control groups taken as 1).

[8] = tested on: CCD 1059 normal human skin fibroblasts; assay: Effect of combined use of S-containing compound (cystine) on intracellular glutathione; format: cell-based; conditions: compound 10 μg/ml, control = cystine only
Method: CCD 1059 normal human skin fibroblasts (1.5×10^5 cells) (manufactured by Dainippon Pharmaceutical Co., Ltd.) were inoculated in a petri dish (manufactured by Nunc) with a diameter of 6 cm, and the cells were cultured in Dulbecco's modified Eagle's medium (DMEM) containing 10% deactivated fetal bovine serum (hereafter abbreviated to “FBS”) for 3 days at 37° C. in the presence of 5% carbon dioxide gas. When the cells were 80% confluent, the medium was exchanged with DMEM containing 0.5% fetal bovine serum (hereafter abbreviated to “FBS” in some cases). […] Then, the absorbance at 405 nm was measured, and this was taken as the glutathione concentration.
However, since it was desired to add an S-containing compound at an arbitrary concentration, the culture medium used in the case of this addition was DMEM that contains no S-containing compound (i.e., a medium that was free of methionine, cysteine, and cystine). […] A comparison was made by calculation from the ratio relative to respective control groups in which only cystine was added (groups in which only cystine was added were taken as control groups, and the activities of the respective test substance groups were evaluated as ratios relative to the control groups with the activities of the respective control groups taken as 1).

[9] = tested on: rats; assay: Long-term oral administration to rats (toxicity); format: in vivo; conditions: 100 days, 1,000 mg/kg per day
Excerpt: DPE or a glycoside thereof has a low toxicity.

Compound | Melanin suppression rate (compound) [1] | Survival rate (%: based on non-exposed group) [2] | Glutathione enhancing activity (compound), ratio to control ([3]; 2.5 μg/ml) | Glutathione enhancing activity (compound), ratio to control ([3]; 5 μg/ml) | Glutathione enhancing activity (compound), ratio to control ([3]; 10 μg/ml) | Glutathione enhancing activity (compound), ratio to control ([3]; 20 μg/ml) | Effect on hepatocyte (glutathione), ratio to control [4] | Gamma-glutamyl cysteine synthetase/G3PDH (Relative to control) [5] | Amount of xCT expression (Relative to control) [6] | Combined effect with cysteine, ratio to control, cysteine 200 μM added group [7] | Combined effect with cysteine, ratio to control, cysteine 400 μM added group [7] | Combined effect with cystine, ratio to control, cystine 200 μM added group [8] | Melanin suppression rate (positive control) [1] | Mortality [9]
OCCc1ccc(O)c(O[C@@H]2O[C@H](CO)[C@@H](O)[C@H](O)[C@H]2O)c1 [DPE-3′-O-β-D-Glucopyranocide, 2-(3,4-dihydroxyphenyl)ethanol-3′-O-β-D-glucopyranocide] | 32.3% | 46% | 1.15 | 1.19 | 1.25 | 1.73 | 1.26 | 3.8 | 1.3 | 1.26 | 1.52 | 1.56 |  | 
O=c1cc(CO)occ1O [Kojic acid, reference compound] |  |  |  |  |  |  |  |  |  |  |  |  | 39.9% | 
OCCc1ccc(O[C@@H]2O[C@H](CO)[C@@H](O)[C@H](O)[C@H]2O)c(O)c1 [DPE-4′-O-β-D-Glucopyranocide, 2-(3,4-dihydroxyphenyl)ethanol-4′-O-β-D-glucopyranocide] | 35.4% | 37% |  |  |  |  |  |  |  |  |  |  |  | 
O=C1O[C@H]([C@@H](O)CO)C(O)=C1O [Vitamin C, reference compound] |  |  |  |  |  |  |  |  |  |  |  |  | 23.0% | 
OC[C@H]1O[C@@H](OCCc2ccc(O)c(O)c2)[C@H](O)[C@@H](O)[C@@H]1O [DPE-1-O-β-D-Glucopyranocide, 2-(3,4-dihydroxyphenyl)ethanol-1-O-β-D-glucopyranocide] | 24.6% | 42% |  |  |  |  |  |  |  |  |  |  |  | 
OCCc1ccc(O)c(O)c1 [DPE, 2-(3,4-dihydroxyphenyl)ethanol] | 52.3% | 61% | 1.36 | 1.85 | 2.33 | 2.74 | 1.16 | 8.2 | 4.8 | 1.25 | 1.89 | 3.42 |  | no cases of mortality
